# Target: T1, AKR2E8 (Bombyx mori, UniProt A0A8D5RRY4)
# T1 sequence (A0A8D5RRY4 1-331 limits assumed): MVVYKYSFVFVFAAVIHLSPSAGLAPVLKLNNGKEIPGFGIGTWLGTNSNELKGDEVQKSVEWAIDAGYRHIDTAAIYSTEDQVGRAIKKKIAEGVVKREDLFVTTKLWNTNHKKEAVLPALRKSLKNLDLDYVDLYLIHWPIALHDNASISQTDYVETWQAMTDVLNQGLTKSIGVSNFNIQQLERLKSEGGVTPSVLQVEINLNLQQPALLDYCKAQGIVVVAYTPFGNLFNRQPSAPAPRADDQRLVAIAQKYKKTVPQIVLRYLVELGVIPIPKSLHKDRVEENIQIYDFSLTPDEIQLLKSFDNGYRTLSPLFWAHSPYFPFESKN
# Experiment: NADPH-linked benzaldehyde reduction
# Format: biochemical
# Conditions: 0.1 mM NADPH, 25 μM benzaldehyde, 0.1 M potassium phosphate pH 7.4
# Text: NADPH-linked benzaldehyde reduction on AKR2E8
row,Structure (SMILES),IC50 [µM]
1,O=c1cc(-c2ccc(O)cc2)oc2cc(O)cc(O)c12 [Apigenin],0.17 ± 0.01
2,O=c1c(-c2ccc(O)cc2)coc2cc(O)ccc12 [Daidzein],0.034 ± 0.0027
3,O=c1c(-c2ccc(O)cc2)coc2cc(O)cc(O)c12 [Genistein],0.018 ± 0.0014
4,O=c1c(O)c(-c2ccc(O)cc2)oc2cc(O)cc(O)c12 [Kaempferol],0.46 ± 0.12
5,O=c1c(O)c(-c2ccc(O)c(O)c2)oc2cc(O)cc(O)c12 [Quercetin],0.065 ± 0.0018
6,Oc1ccc(/C=C/c2cc(O)cc(O)c2)cc1 [Resveratrol],0.55 ± 0.023

# Source: article PMC9352109, “Novel silkworm (Bombyx mori) sulfotransferase swSULT ST3 is involved in metabolism of polyphenols from mulberry leaves” (PLoS ONE, 2022)
